Experimental data: EP0231622B1, “Inhibition of the 5-lipoxygenase pathway” (priority 1985, dated 1987)
Marks after values point to notes of the source that are not given here.

What was measured:
[1] = test system: Arachidonic Acid-Induced Cellular Infiltration; assay: Arachidonic acid-induced air pouch inflammation; type: in vivo, Lewis rats; details: 100 mg/kg; 3 hours after arachidonic acid
Text: (§1) In the following Examples where mice were used, they were male Balb/c mice (20-28 g), and where rats were used, they were male Lewis rats (180-210 g). All mice and rats were obtained from Charles River Breeding Laboratories, Kingston, N.Y. Within a single experiment, mice and rats were sex and age matched.
(§2) The compounds of Formula (IA) were used either as the free base or in the appropriate salt form. Levamisole was used as the hydrochloride salt. The compounds were homogenized in 0.5% tragacanth. Compounds were administered by gavage at the indicated dose in a final volume of 10 ml/kg. Nordihydroguaiaretic acid (NDGA) was solubilized in dimethylacetamide and diluted with olive oil for subcutaneous administration.
Rats were shaved on the dorsal flank, and then injected subcutaneously one day later with 20 ml of air to form a defined pouch, by the method of Sedgwick et al., J. Pathology, 141, 483-495 (1983). The air pouch was reinflated as necessary over the next 6 days. To assay anti-inflammatory activity, animals were treated orally with test compound or vehicle (10 ml/kg) one hour before injection of 2.0 ml of a 2.0% carrageenan suspension containing 200 units/ml penicillin and 100 »g/ml streptomycin into the air pouch. In other experiments, 5 ml of 0.1% arachidonic acid in 0.2 M bicarbonate buffer was injected two hours after drug treatment. Animals were sacrificed using CO₂ three hours after instillation of irritant. The exudate was then aspirated from the pouch and neutrophil count and differential cell count were measured.

[2] = test system: Arachidonic Acid-Induced Inflammation of the Mouse Ear; assay: Arachidonic acid-induced mouse ear inflammation; type: in vivo, Balb/c mice
Text: as §1, §2
Arachidonic acid in acetone (2 mg/20 ul) was applied to the inner surface of the left ear. The thickness of both ears was then measured with a dial micrometer one hour after treatment, and the data were expressed as the change in thickness (10⁻³ cm) between treated and untreated ears.
Test compounds were given orally in 0.5% tragacanth at the times indicated in the text prior to the topical application of arachidonic acid.
Parenteral administration of compound was accomplished by subcutaneous injection of solution as indicated.

[3] = test system: Experimental Allergic Encephalomyelitis; assay: Experimental allergic encephalomyelitis, hindleg paralysis; type: in vivo, Female Lewis rats; details: 60 Mg/kg/day, p.o. days 0-4, 7-11, 14-18
Procedure: EAE is induced in Female (Charles River) Lewis rats by a single intradermal injection of 0.1 ml of an encephalitogenic emulsion consisting of equial parts of a 50% w/v homogenate of guinea pig spinal cord and mid-brain in 0.5% aqueous phenol and Freund's complete adjuvant (4 mg/ml killed, dried M. butyricum) into a hindpaw (left) footpad. […] Any animal which becomes paralyzed during the course of the experiment is considered to have developed EAE whether or not the paralysis is permanent. Test compounds are administered daily beginning on the day of injection, for 19 days, exclusive of days 5, 6 12 and 13. Drug activity is determined by comparing the indicidence of EAE (paralysis) of the treated group with a control (vehicle) group. The level of significant difference between the treated groups and control groups is determined by a Chi-square test using a 2x2 contingency table. Body weight changes from day 0 are also statistically compared to the control group using a Student "t" test.

With `Fc1ccc(-c2nc3n(c2-c2ccncc2)CCS3)cc1` [Compound 1, 5-(4-pyridyl)-6-(4-fluorophenyl)-2,3-dihydroimidazo[2,1-b]thiazole] the “Cellular Infiltrate (Total x 10⁻⁶) MN” value [1] was 1.5 ± 1.1^d x 10⁻⁶, the “Cellular Infiltrate (Total x 10⁻⁶) PMN” value [1] was 1.2 ± 0.7^e x 10⁻⁶ and the “Exudate Volume” value [1] was 2.6 ± 0.8 mL. For the same compound, the ED50 ([2]; Mus musculus, po, 1 hour after 2 mg of arachidonic acid to the ear, read-out: ED₅₀ (inhibition of the edematous response of the ear)) was 19.5 mg/kg, the “% Change” value ([2]; Table 7, 50 mg/kg, p.o.) was -67^b % and the “Increase in Ear Thickness at 1 Hour (x 10⁻³ cm)” value ([2]; Table 7, 50 mg/kg, p.o., 15 minutes before arachidonic acid) was 10.0 ± 1.5 x 10⁻³ cm. For the same compound, the “HINDLEG PARALYSIS - CUMULATIVE INCIDENCE DAY 9 TO 13” value [3] was 10/12 and the “HINDLEG PARALYSIS - CUMULATIVE INCIDENCE DAY 14 TO 18” value [3] was 0/11**.
